In BindingDB's records for doi:10.7270/Q2SB4462 (Burnham Center For Chemical Genomics, 2011):

Target: T1, Ubiquitin-conjugating enzyme E2 N (Homo sapiens, UniProt P61088)
T1 sequence (P61088 whole entry): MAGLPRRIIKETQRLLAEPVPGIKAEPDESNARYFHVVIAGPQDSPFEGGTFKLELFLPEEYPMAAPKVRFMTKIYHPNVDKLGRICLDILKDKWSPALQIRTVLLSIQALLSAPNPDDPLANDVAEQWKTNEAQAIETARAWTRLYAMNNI
Test: concentration-dependent UBC13 chain formation blockade – biochemical, TR-FRET, reconfirmation, dose response (AID 493182)

| Structure (SMILES) | IC50 |
| --- | --- |
| C#CCOCCOCCOCCNc1nc(N2CCN(C(=O)[C@H](Cc3cc4ccccc4[nH]3)n3cc([C@@H](N)C(C)CC)nn3)CC2)nc(N2CCN(C(=O)[C@H](Cc3cc4ccccc4[nH]3)n3cc([C@@H](N)Cc4ccc(O)cc4)nn3)CC2)n1 (stereo partly drawn) [SMR000391146] | 6.27 µM |
| CC1CC(C)(C)N2C(=O)/C(=N\NC(N)=S)c3cccc1c32 (stereo not drawn) [SMR000414933] | 4.95 µM |
| CCN(CC)CCOC(=O)c1ccc(N=CC(C#N)c2nc(-c3ccc(OC)c(OC)c3)cs2)cc1 (stereo not drawn) [SMR000434079] | 3.02 µM |
| C#CCOCCOCCOCCNc1nc(N2CCN(C(=O)C([C@@H](C)CC)n3cc(C(N)COC(=O)C(F)(F)F)nn3)CC2)nc(N2CCN(C(=O)[C@H](CCCCN)n3cc(C(N)CC(C)C)nn3)CC2)n1 (stereo partly drawn) [SMR000453712] | 15.3 µM |
| C#CCOCCOCCOCCNc1nc(N2CCN(C(=O)CCCCCCCCCCNC(=O)Cn3cc(CCCCCN)nn3)CC2)nc(N2CCN(C(=O)CCCCCCCCCCNC(=O)Cn3cc(CCCCCN)nn3)CC2)n1 [SMR001231146] | 3.36 µM |
| C#CCOCCOCCOCCNc1nc(N2CCN(C(=O)CCCCCCCCCCNC(=O)[C@H](CO)n3cc(CCCSC)nn3)CC2)nc(N2CCN(C(=O)CCCCCCCCCCNC(=O)[C@H](CCCCN)n3cc(CCO)nn3)CC2)n1 [SMR001318322] | 5.71 µM |
| Cc1cccc2c1C(=NNC(N)=S)C(=O)N2C1OC(CO)C(O)C(O)C1O (stereo not drawn) [The compound has not trivial name.] | 4.56 µM |
| NC(=S)NN=C1C(=O)N(C2OC(=O)c3ccccc32)c2ccccc21 (stereo not drawn) [[(Z)-[2-oxo-1-(3-oxo-1H-isobenzofuran-1-yl)-3-indolylidene]amino]thiourea] | 2.38 µM |
